Experimental data: the NIST ThermoML archive (doi:10.1016/j.jct.2010.11.004)
± gives the expanded uncertainty stated by the source.

Experiment: excess molar enthalpy (molar enthalpy of mixing); xn = mol fraction of the nth substance listed
Settings: 298.15 K, 101 kPa, Liquid, ISOTHERMAL TITRATION CALORIMETRY

CCCCCCCCC(C)=O [2-decanone] + CCCCCCCCCCCC
Settings	excess molar enthalpy [kcal/mol]
x1 = 0.0258	0.0318 ± 0.000478
x1 = 0.0503	0.059 ± 0.000956
x1 = 0.0736	0.0822 ± 0.0012
x1 = 0.0958	0.102 ± 0.00143
x1 = 0.1169	0.119 ± 0.00167
x1 = 0.1371	0.134 ± 0.00167
x1 = 0.1612	0.15 ± 0.00191
x1 = 0.1841	0.164 ± 0.00215
x1 = 0.2057	0.175 ± 0.00215
x1 = 0.2262	0.185 ± 0.00239
x1 = 0.2456	0.193 ± 0.00239
x1 = 0.2641	0.2 ± 0.00263
x1 = 0.2847	0.206 ± 0.00263
x1 = 0.3042	0.211 ± 0.00263
x1 = 0.3226	0.216 ± 0.00287
x1 = 0.3401	0.219 ± 0.00287
x1 = 0.3567	0.222 ± 0.00287
x1 = 0.3725	0.224 ± 0.00287
x1 = 0.3897	0.226 ± 0.00287
x1 = 0.406	0.227 ± 0.00287
x1 = 0.4215	0.228 ± 0.00287
x1 = 0.4362	0.228 ± 0.00287
x1 = 0.4501	0.227 ± 0.00287
x1 = 0.4634	0.227 ± 0.00287
x1 = 0.4782	0.226 ± 0.00287
x1 = 0.4923	0.225 ± 0.00287
x1 = 0.5055	0.224 ± 0.00287
x1 = 0.5182	0.222 ± 0.00287
x1 = 0.5302	0.22 ± 0.00287
x1 = 0.5416	0.218 ± 0.00287
x1 = 0.5543	0.216 ± 0.00287
x1 = 0.5663	0.214 ± 0.00263
x1 = 0.5777	0.211 ± 0.00263
x1 = 0.5885	0.209 ± 0.00263
x1 = 0.5987	0.206 ± 0.00263
x1 = 0.6049	0.204 ± 0.00263
x1 = 0.6179	0.201 ± 0.00263
x1 = 0.6311	0.197 ± 0.00263
x1 = 0.6448	0.193 ± 0.00239
x1 = 0.6592	0.188 ± 0.00239
x1 = 0.6742	0.183 ± 0.00239
x1 = 0.6899	0.178 ± 0.00239
x1 = 0.704	0.173 ± 0.00215
x1 = 0.7187	0.167 ± 0.00215
x1 = 0.7341	0.161 ± 0.00215
x1 = 0.7501	0.154 ± 0.00191
x1 = 0.7668	0.146 ± 0.00191
x1 = 0.7843	0.137 ± 0.00191
x1 = 0.8	0.13 ± 0.00167
x1 = 0.8163	0.121 ± 0.00167
x1 = 0.8334	0.112 ± 0.00143
x1 = 0.8511	0.102 ± 0.00143
x1 = 0.8696	0.0918 ± 0.0012
x1 = 0.889	0.0798 ± 0.0012
x1 = 0.9057	0.0686 ± 0.000956
x1 = 0.9231	0.0571 ± 0.000717
x1 = 0.9412	0.0442 ± 0.000717
x1 = 0.96	0.0308 ± 0.000478
x1 = 0.9796	0.0158 ± 0.000478

CCCCCCCCC(C)=O [2-decanone] + CCCCCCCCCCCCCC
Settings	excess molar enthalpy [kcal/mol]
x1 = 0.0282	0.0361 ± 0.000717
x1 = 0.0549	0.0664 ± 0.000956
x1 = 0.0805	0.092 ± 0.0012
x1 = 0.1041	0.114 ± 0.00143
x1 = 0.1268	0.132 ± 0.00167
x1 = 0.1484	0.148 ± 0.00191
x1 = 0.1741	0.165 ± 0.00215
x1 = 0.1983	0.18 ± 0.00239
x1 = 0.2212	0.192 ± 0.00239
x1 = 0.2427	0.202 ± 0.00263
x1 = 0.2632	0.211 ± 0.00263
x1 = 0.2825	0.218 ± 0.00287
x1 = 0.3044	0.225 ± 0.00287
x1 = 0.325	0.23 ± 0.00287
x1 = 0.3444	0.235 ± 0.00287
x1 = 0.3628	0.238 ± 0.00311
x1 = 0.3801	0.241 ± 0.00311
x1 = 0.3965	0.243 ± 0.00311
x1 = 0.4145	0.245 ± 0.00311
x1 = 0.4313	0.245 ± 0.00311
x1 = 0.4472	0.246 ± 0.00311
x1 = 0.4623	0.246 ± 0.00311
x1 = 0.4765	0.245 ± 0.00311
x1 = 0.4901	0.245 ± 0.00311
x1 = 0.5029	0.244 ± 0.00311
x1 = 0.5151	0.242 ± 0.00311
x1 = 0.5292	0.241 ± 0.00311
x1 = 0.5425	0.239 ± 0.00311
x1 = 0.555	0.236 ± 0.00311
x1 = 0.5669	0.234 ± 0.00287
x1 = 0.5782	0.232 ± 0.00287
x1 = 0.5889	0.229 ± 0.00287
x1 = 0.5991	0.227 ± 0.00287
x1 = 0.6088	0.224 ± 0.00287
x1 = 0.6201	0.221 ± 0.00287
x1 = 0.6308	0.217 ± 0.00287
x1 = 0.6408	0.214 ± 0.00263
x1 = 0.6504	0.211 ± 0.00263
x1 = 0.6594	0.208 ± 0.00263
x1 = 0.668	0.205 ± 0.00263
x1 = 0.6762	0.202 ± 0.00263
x1 = 0.684	0.199 ± 0.00263
x1 = 0.7031	0.189 ± 0.00239
x1 = 0.7191	0.182 ± 0.00239
x1 = 0.7334	0.176 ± 0.00215
x1 = 0.7483	0.169 ± 0.00215
x1 = 0.7638	0.162 ± 0.00215
x1 = 0.7799	0.154 ± 0.00191
x1 = 0.7968	0.145 ± 0.00191
x1 = 0.8144	0.135 ± 0.00167
x1 = 0.8298	0.126 ± 0.00167
x1 = 0.8458	0.116 ± 0.00143
x1 = 0.8624	0.106 ± 0.00143
x1 = 0.8797	0.0939 ± 0.0012
x1 = 0.8977	0.0815 ± 0.0012
x1 = 0.9133	0.07 ± 0.000956
x1 = 0.9294	0.0578 ± 0.000956
x1 = 0.9461	0.0452 ± 0.000717
x1 = 0.9634	0.0311 ± 0.000478
x1 = 0.9814	0.016 ± 0.000478

CCCCCCCCC(C)=O [2-decanone] + CCCCCCCCCCCCCCCC
Settings	excess molar enthalpy [kcal/mol]
x1 = 0.0372	0.048 ± 0.000717
x1 = 0.0716	0.087 ± 0.0012
x1 = 0.1038	0.119 ± 0.00167
x1 = 0.1337	0.145 ± 0.00191
x1 = 0.1617	0.167 ± 0.00215
x1 = 0.188	0.185 ± 0.00239
x1 = 0.2169	0.203 ± 0.00263
x1 = 0.2437	0.217 ± 0.00287
x1 = 0.2688	0.229 ± 0.00287
x1 = 0.2923	0.239 ± 0.00311
x1 = 0.3143	0.246 ± 0.00311
x1 = 0.335	0.253 ± 0.00311
x1 = 0.3574	0.258 ± 0.00335
x1 = 0.3784	0.263 ± 0.00335
x1 = 0.3981	0.266 ± 0.00335
x1 = 0.4166	0.268 ± 0.00335
x1 = 0.434	0.27 ± 0.00335
x1 = 0.4503	0.27 ± 0.00335
x1 = 0.4686	0.27 ± 0.00335
x1 = 0.4857	0.27 ± 0.00335
x1 = 0.5017	0.269 ± 0.00335
x1 = 0.5168	0.268 ± 0.00335
x1 = 0.531	0.266 ± 0.00335
x1 = 0.5443	0.264 ± 0.00335
x1 = 0.559	0.261 ± 0.00335
x1 = 0.5728	0.259 ± 0.00335
x1 = 0.5858	0.256 ± 0.00335
x1 = 0.598	0.253 ± 0.00311
x1 = 0.6095	0.25 ± 0.00311
x1 = 0.6204	0.247 ± 0.00311
x1 = 0.6324	0.243 ± 0.00311
x1 = 0.6436	0.239 ± 0.00311
x1 = 0.6542	0.236 ± 0.00311
x1 = 0.6641	0.232 ± 0.00287
x1 = 0.6735	0.228 ± 0.00287
x1 = 0.6824	0.224 ± 0.00287
x1 = 0.6964	0.217 ± 0.00287
x1 = 0.7102	0.21 ± 0.00263
x1 = 0.7245	0.204 ± 0.00263
x1 = 0.7393	0.197 ± 0.00263
x1 = 0.7521	0.191 ± 0.00239
x1 = 0.7655	0.184 ± 0.00239
x1 = 0.7793	0.176 ± 0.00215
x1 = 0.7936	0.168 ± 0.00215
x1 = 0.8084	0.159 ± 0.00215
x1 = 0.8238	0.149 ± 0.00191
x1 = 0.8372	0.14 ± 0.00191
x1 = 0.8511	0.13 ± 0.00167
x1 = 0.8654	0.12 ± 0.00167
x1 = 0.8802	0.109 ± 0.00143
x1 = 0.8955	0.0966 ± 0.0012
x1 = 0.9114	0.0837 ± 0.0012
x1 = 0.9251	0.0722 ± 0.000956
x1 = 0.9391	0.0598 ± 0.000956
x1 = 0.9537	0.0461 ± 0.000717
x1 = 0.9686	0.0318 ± 0.000478
x1 = 0.9841	0.0163 ± 0.000478
